Data: patent US20170240592A1, “GADD45BETA/MKK7 INHIBITOR FOR THE TREATMENT OF A RESISTANT HAEMATOLOGICAL MALIGNANCY” (IMPERIAL INNOVATIONS LIMITED, priority 2014, published 2017)

Key:
tolerability in mice = assay type: in vivo
Source text: Values denote means±SD (n=3) or SEM (n=5), as indicated. MW, molecular weight.

[1] = plasmacytoma model, subcutaneous U266 myeloma xenografts; assay type: in vivo, NOD/SCID mice; conditions: male, NOD/SCID (NOD.CB17-Prkdc^scid/IcrCrl), mouse, plasma, sc, 14.5 mg/kg/day; continual infusion via osmotic pumps, 14.5 mg/kg/d; SEM, n=16; read-out: plasma concentration at the steady state
Description: (§1) Values denote means±SEM (n=16). ***, p<0.001.
(§2) Mice were housed in the animal facilities at Hammersmith. All experiments were conducted under PPL 70/6874, after approval by the Imperial College Ethical Review Process and the Home Office. For the plasmacytoma model, NOD/SCID mice (NOD.CB17-Prkdc^scid/IcrCrl; Charles River) were injected subcutaneously with 1.0×10^7 U266 or KMS-11 multiple myeloma cells, and then randomized into treatment groups and treated by infusion, as shown. Tumour volumes were measured as described in Mauro et al., 2011. For the orthotopic multiple myeloma model, mice of the same strain were sub-lethally irradiated and then injected intravenously with 1.0×10^7 KMS-12-BM multiple myeloma cells, as described in Rabin et al., 2007). Mice were then randomized into treatment groups and treated by infusion for 8 weeks, as shown. Animals were monitored daily and euthanized on day 161 of treatment start or when they reached any of the end-points in the PPL. Additional details are provided in the Supplemental Experimental Procedures.
(§3) Mice were housed in the animal facilities at the Hammersmith Campus, Imperial College London, and experiments were conducted under the Home Office Authority (PPL 70/6874). The PPL was reviewed by the Imperial College Ethical Review Process (ERP) and the Home Office. For experiments in the subcutaneous xenograft models (FIGS. 16-17), 6 to 8-week old male NOD/SCID mice (NOD.CB17-Prkdc^scid/IcrCrl; Charles River) were injected intraperitoneally with anti-CD122 monoclonal antibody (TM-β1 clone; 200 μg/mouse) (Tanaka et al., 1991) and, 24 hr later, subcutaneously in the left flank with 1.0×10^7 U266 or KMS-11 human multiple myeloma cells resuspended in 200 μL of sterile PBS and Matrigel (1:1) (BD Biosciences), using a 1-mL Luer-Lok™ Tip syringe (BD Biosciences) with a 25-gauge needle (Bhutani et al., 2007). U266 and KMS-11 cells were harvested from exponentially growing cultures, washed once with serum-free medium, and resuspended in PBS immediately before injection (Bhutani et al., 2007). The anti-CD122 antibody was affinity purified using HiTrap Protein G HP columns (GE Healthcare), according to the manufacturer's instructions. One week after injection of the cells, when tumour volumes had reached approximately 100 mm^3 (U266 cells) or tumours had yet to be palpable (KMS-11 cells), mice were randomized into treatment groups (n=16 or n=4 per group, respectively; day 0) (Bhutani et al., 2007) and, then, treated by continual infusion of DTP3 at a dose of 14.5 mg/kg/d, yielding a plasma concentration of 0.70±0.09 μM (SEM; n=16), or PBS. Treatments were administered using Alzet osmotic pumps (model 1004; 28-day delivery at the rate of […]; Charles River), implanted surgically subcutaneously into the right flank of each mouse, according to the manufacturer's instructions (Gullapalli et al., 2012). For systemic administration, DTP3 was dissolved at the concentration of 147 mg/mL in PBS, and mice were euthanized on day 28 of the start of treatment with CO2. Tumour diameters were measured at the indicated times using a vernier calliper, and volumes were estimated from calliper measurements using the following equation: volume=A×B^2/2 (where A is the larger diameter, and B is the smaller diameter of the tumour) (Mauro et al., 2011). Results were reproduced at least twice. The plasma concentration of DTP3 was measured at the steady state by LC-MS/MS at Cyprotex, as described above.

[2] = system: subcutaneous U266 myeloma xenografts; assay: as above; assay type: in vivo, NOD/SCID mice; conditions: for effect on established subcutaneous myeloma xenografts (tumour volume): to day 28
Description: as §1, §2, §3

FIG. 14 = assay: FIG. 14
Source text: Table printed on a drawing sheet, FIG. 14
Values denote means±SD (n=3).
First reader's note: Each cell holds the value ± error and its unit together.

[3] = in vivo pharmacokinetic analyses after single intravenous injection; conditions: calculated from measured PK values, k0=k1×Vd×Cp
Description: In vitro pharmacokinetic assays were performed according to established, in-house protocols and included: plasma stability (human), thermodynamic solubility (PBS pH 7.4, at 37° C. for 14 days), microsomal stability (human), plasma protein binding (PPB; mouse and human), and distribution coefficient (Log D). In vivo pharmacokinetic analyses were also performed at Cyprotex according to established, in-house protocols. Briefly, the peptides were dissolved in PBS and administered by single intravenous injection to CD1 male mice at the dose of 10 mg/kg (25-30 g of total body weight; n=3 mice per time point per compound). Blood samples were collected in heparinized tubes at up to 7 time points after this injection (i.e. 0.08, 0.25, 0.5, 1, 2, 4 and 8 hr), and the plasma concentrations of the test peptide were determined at each time point by LC-MS/MS, using a five-point standard curve covering a peptide concentration range from 3 to 3,000 ng/mL. Standard curves were prepared using blank plasma matrices and treated in the same manner as the test samples. […] Values were calculated from the data of the peptide plasma concentration versus time curves using a non-compartmental model analysis, as described elsewhere (Groulx, 2006; Landaw and Di Stefano 3rd, 1982). The doses of z-DTP2 and DTP3 predicted to achieve the therapeutic plasma concentration of 1 μM at the steady state were calculated from the measured pharmacokinetic values using the following equation: k0=k1×Vd×Cp (where Vd is expressed in L/kg; Cp is the plasma concentration at the steady state expressed in mg/L; k0 is the zero order input expressed in mg/kg/hr; k1 is the first order elimination constant [0.693/t1/2]).

U266 cells = assay: [3H]thymidine incorporation assay, DTP3 and bortezomib as single agents or in combination, U266; conditions: FA 0.5; DTP3 3 nM for 6 days, bortezomib last 48 hr; Chou-Talalay
Description: (§4) Treatments with DTP3 were for 6 days; bortezomib was added to the cell cultures 48 hr prior to the measurement of cell viability. For the combination treatment, DTP3 was used at the concentrations of 3 nM in U266 cells and of 10 nM in KMS-12 cells, whereas bortezomib was used at increasing concentrations, as shown.
Viability data from the experiment shown in FIG. 12 were converted into values representing the fraction of cells affected (FA) equaling 0.5 in the drug-treated cultures compared with untreated cultures, and the interaction of DTP3 with bortezomib was analysed according to the Chou-Talalay method (Chou, 2006). Also shown are the drug concentrations giving the FA value of 0.5 and the description of the CI. […]
(§5) [^3H]Thymidine incorporation assays were performed using standard protocols (Griffiths and Sundaram, 2011). […] At 24, 72 or 144 hr, cells were incubated for an additional 16 hr with 0.037 MBq/well of [^3H]thymidine (Amersham), and then harvested onto glass fibre filter mats using a 96-well plate automated Tomtec cell harvester (Receptor Technologies) and analysed by liquid scintillation spectroscopy with a LKB Wallac Trilux Microbeta 3 b-counter (PerkinElmer). Values were expressed as the percentage of the counts per minute (cpm) measured in the treated cultures relative to the cpm measured in the respective untreated cultures. […]

KMS-12 cells = assay: [3H]thymidine incorporation assay, DTP3 and bortezomib as single agents or in combination, KMS-12
Description: as §4
Viability data from the experiment shown in FIG. 12 were converted into values representing the fraction of cells affected (FA) equaling 0.5 in the drug-treated cultures compared with untreated cultures, and the interaction of DTP3 with bortezomib was analysed according to the Chou-Talalay method (Chou, 2006). Also shown are the drug concentrations giving the FA value of 0.5 and the description of the CI. Based on the Chou-Talalay equation (Chou, 2006), synergy is present when the CI is less than 1.0 (where values between 0.3 and 0.7 denote synergism, and values between 0.1 and 0.3 denote strong synergism); the combination is additive when CI equals 1.0, and antagonistic when it is more than 1.0 (Chou, 2006).
as §5
The activities of DTP3 and bortezomib in the U266 and KMS-12 myeloma cell lines, both as single agents and in combination, were determined using [^3H]thymidine incorporation assays, performed as described above in “Cell Proliferation, Cell Death, and Apoptosis Assays”. The IC50 values of bortezomib as single agent were determined at 48 hr using 9 concentrations of drug, ranging from 0.1 to 1,000 nM.

[4] = 14.5 mg/kg/day continual infusion
[5] = 14.5 mg/kg/day, results not shown

CC(=O)N[C@H](Cc1ccc(O)cc1)C(=O)N[C@H](CCCNC(=N)N)C(=O)N[C@H](Cc1ccccc1)C(N)=O [DTP3, Acetyl-Tyr-Arg-Phe-NH2]
tolerability after single administration (tolerability in mice; mice, single i.v. injection, s.c. injection or per os): excellent tolerability
in-vivo tolerability (tolerability in mice; mouse, in vivo): excellent in-vivo tolerability
tolerability after prolonged administration (tolerability in mice; osmotic pumps, 28 days, 14.5 mg/kg/day): excellent tolerability and lack of any apparent side effects
level at time molar [1]: ~1000 nM
side effects [2, 4]: absence of any apparent side effects
effect on established subcutaneous myeloma xenografts (tumour volume) [2, 4]: virtually eradicated
effect on established subcutaneous myeloma xenografts (tumour volume) ([2]; 14.5 mg/kg/day continual infusion, listed as DTP-3): dramatic shrinkage of the tumors
appearance of caspase-3 and PARP-1 proteolysis products in tumour [2, 5]: 3 days
appearance of phosphorylated JNK in tumour after onset of treatment [2, 5]: 24 h
CL (FIG. 14): 27.13 ± 4.09 mL/min/kg
Vd (FIG. 14): 2.80 ± 1.26 L/kg
predicted dose required to achieve the therapeutic plasma concentration of 1 μM at the steady state (k0) [3]: 0.81 mg/kg/h
combination index (CI) with bortezomib (U266 cells): 0.21
combination index (CI) with bortezomib (KMS-12 cells; FA 0.5, DTP3 10 nM for 6 days, bortezomib last 48 hr, Chou-Talalay): 0.56
description of the CI (KMS-12 cells; combination with bortezomib): synergism (values between 0.3 and 0.7 denote synergism)
